Experimental data reported in patent publication US7714014B2, “Targeting GLI proteins in human cancer by small molecules” (The Regents of the University of California, priority 2005, dated 2010).

Columns and labels:
[1] = tested on: human pancreatic cancer cell lines L3.6sl, Panc4.21, BxPC3, and CFPAC-1; assay: Cell survival assay (crystal violet); assay type: cell-based; settings: for cell killing: 50 μM, all pancreatic lines analyzed
Procedure: (§1) Typically, the small molecule compounds of the present invention were dissolved in DMSO at a concentration of 30 mM. The small molecule compounds were then tested under cell culture conditions at different concentrations ranging from 0, 10, 30, 50, to 100 uM. To determine cell survival after treatment, the cells were incubated with the small molecule compounds in 6-well plates for about 3 days. After removal of the cell culture medium, 1-ml of 0.5% crystal violet solution (prepared in 20% ethanol and 20% methanol) was added to stain the cells for 5 min. Then the crystal violet solution was rinsed clean with tap water. Cell survival was estimated based on the density of crystal stained plates.
The cell-based cytotoxicity assay described herein was used to determine the effect of small molecule compounds FN1-5 and FN1-8 on the human pancreatic cancer cell lines L3.6sl, Panc4.21, BxPC3, and CFPAC-1. Viability of these cells was analyzed after treatment with 10, 30 and 50 μM FN1-5 or FN1-8. […] However, cell killing mediated by FN1-5 in Panc4.21 was less when compared to its effect on the three other pancreatic cancer cell lines.

[2] = tested on: GLI1- and GLI2-induced transcription in Panc4.21 pancreatic cancer cells; assay: 6xGLI BS-luciferase reporter assay; assay type: cell-based, human; settings: for 6xGLI BS-luciferase activity (TAFII31 co-transfected with GLI1 or GLI2): Panc4.21, 20 μM for 16-20 hours; for 6xGLI BS-luciferase activity (GLI1- or GLI2-induced): Panc4.21, 20 μM, 16-20 hours
Procedure: One day before transfection, cells (1×10^5) were plated in 12-well plates with growth medium without antibiotics. When cells reached 80-90% of confluence they were co-transfected using 0.5 μg of each promoter construct in pGL3Basic vector and 0.025 μg pRL-TK Vector (Promega; Madison, Wis.) containing Renilla Luciferase as an internal control for the transformation efficiency. Lipofectamine 2000™ (Invitrogen Life Technologies) was used to mediate transfection for about 6 hours. […] Briefly, cells were lysed in a lysis buffer and Firefly and Renilla Luciferase activities in cells of each well, were measured using Dual-Luciferase Assay System (Promega) and an illuminometer. The measured luciferase activities were normalized to pRL-TK Vector activity and were given relative to the basal activity of empty pGL3-Basic Vector, which was set to unity. The data shown represent mean values (±S.D.). All measurements were performed in triplicate and repeated in at least three independent experiments. The human Wnt-2 promoter-luciferase construct, the human SOCS3 promoter-Luciferase construct and the human Gremlin promoter-luciferase construct were cloned and characterized in the laboratory of Dr. Jablons at the University of California, San Francisco (San Francisco, Calif.; He et al., Biochem Biophy Res Comm, 2003; and unpublished data). The 6GLI-TKO-luciferase construct (containing 6 repeats of consensus GLI DNA binding sequence) was kindly provided by Dr. Matthias Hebrok's laboratory at the University of California, San Francisco (San Francisco, Calif.).
To further examine the specificity of the small molecule compounds FN1-5 and FN1-8 to inhibit Hh/Gli signaling pathways, GLI-dependent transcription in the absence and presence of these compounds was also determined in pancreatic cancer cells.
This finding also provides a method for inhibiting GLI1- and GLI2-dependent transcription in a cell.
The TAFII31 expression plasmid contained the full-length TAFII31 cDNA generated by PCR cloned into the EcoRI (5′) and BamHI (3′) sites of a mammalian expression vector containing a c-Myc tag (pCDNA3.1 (−)B. The sequence of TAFII31 corresponds to GenBank Accession No. U25112.

[3] = tested on: human renal cell carcinoma cell lines 786-O, Caki, and OMRC3; assay: Cell survival assay (crystal violet); assay type: cell-based; settings: for cell killing: 50 μM
Procedure: as §1
The cell-based cytotoxicity assay described herein was used to determine the effect of small molecule compounds FN1-5 and FN1-8 in the human renal cell carcinoma cell lines 786-O, Caki, and OMRC3. Viability of these cells was analyzed after treatment with 10, 30 and 50 μM FN1-5 or FN1-8.

211H (mesothelioma) = assay: Apoptosis analysis (Annexin V FITC, flow cytometry); assay type: cell-based, human; settings: 3 days
Procedure: (§2) Apoptosis was analyzed by using an Annexin V FITC Apoptosis Detection Kit (Biosource, Camarillo, Calif.), according to the manufacturer's protocol. After treatment with different small molecule compounds at various concentrations for about 3 days, cells were harvested by trypsinization, stained and immediately analyzed by flow cytometry (FACScan; Decton Dickinson, Franklin Lake, N.J.). Early apoptotic cells with exposed phosphatidylserine but intact cell membranes will bind to Annexin V-FITC, but not propidium iodide (PI). Cells in necrotic or late apoptotic stages will be labeled with both Annexin V-FITC and PI. “% apoptotic cells” or “% apoptosis” refers to the combined early and late apoptotic cells.
Flow cytometry was used to examine apoptosis in the mesothelioma cell line 211H after treatment of cells with small molecule compounds FN1-5 and FN1-8.

Normal muscle cells = assay: as above; assay type: cell-based, human; settings: 3 days
Procedure: as §2
In addition, apoptosis induction after the treatment of different doses of FN1-5 or FN1-8 in normal human muscle cells was examined by flow cytometry. Normal muscle cells were plated in 6-well plates and incubated with 1, 10, 30, and 50 μM of each compound for 3 days, as above.

[4] = tested on: hedgehog pathway in HT29 cells; assay: Semi-quantitative RT-PCR of Hedgehog pathway genes; assay type: cell-based, human; settings: data not shown
Procedure: Total RNA from cell lines or tissue samples was isolated using Qiagen RNeasy Mini Kit (Valencia, Calif.). RT-PCR was performed in GeneAmp PCR system 2700 (Applied Biosystems, Foster City, Calif.) using One-step RT-PCR Kit from Invitrogen Life Technologies (Carlsbad, Calif.). Primers for RT-PCR were obtained from Operon Technologies Inc. (Alameda, Calif.). Primer sequences for amplifying different genes in Hedgehog and Wnt signaling pathways are listed in the table below (Table 1; F, forward primer; R, reverse primer). The expected size of the PCR product is indicated for each primer pair. GAPDH was used as internal control.

[5] = tested on: Tcf-mediated gene transcription (canonical Wnt signaling) in colon cancer cell line HCT116; assay: TOPFLASH (TOP/FOP) assay; assay type: cell-based, human; settings: HCT116, 30 μM; for TOP/FOP activity: 18-24 hours
Procedure: Cells were plated in 12-well plates. The TOPFLASH or FOPFLASH reporter plasmid (Upstate; Charlottesville, Va.) was transfected transiently into cells as described above. Tcf-mediated gene transcription was determined by the ratio of pTOPFLASH:pFOPFLASH luciferase activity, each was normalized to luciferase activities of the pRL-TK reporter (co-transfected internal control). All experiments were performed in triplicate, and repeated three times.
As another specificity test of the small molecule compounds of the invention, it was tested whether small molecule compounds FN1-5, FN1-7, FN1-8, FN1-9U, FN1-9S, FN2-1, and FN3-5 could regulate the transcription activity of the canonical Wnt signaling by using TOP/FOP assay.

Row | Compound | cell killing [1] | 6xGLI BS-luciferase activity (TAFII31 co-transfected with GLI1 or GLI2) [2] | 6xGLI BS-luciferase activity (GLI1- or GLI2-induced) [2] | cell killing potency compared with FN1-5 [3] | cell killing [3] | % of apoptotic cells (211H (mesothelioma); 10 μM) | % of apoptotic cells (211H (mesothelioma); 30 μM) | % of apoptotic cells (Normal muscle cells; 10 μM) | % of apoptotic cells (Normal muscle cells; 30 μM) | % of apoptotic cells (Normal muscle cells; 50 μM) | modulation of hedgehog pathway (RT-PCR) [4] | reduction of TOP/FOP activity [5] | TOP/FOP activity [5] | cell killing in Panc4.21 compared to the three other pancreatic cancer cell lines ([1]; Panc4.21)
1 | O=C(NCCc1ccc(O)cc1)C1C(c2ccccc2)=NN(c2ccccc2)C1c1ccccc1 (stereo not shown) [FN1-8, N-(2-(4-Hydroxyphenyl)ethyl)-1,3,5-triphenyl-4,5-dihydro-pyrazole-4-carboxyamide] | dramatic cell killing | significantly reduced | significantly reduced level of luciferase activity | more potent | dramatic cell killing | 5.6% | 30.7% | 7.8% | 9.3% | 9.7% | no noticeable changes | about 36% | down-regulate TOP/FOP activity dramatically | 
2 | O=C(NCCCCCO)C1C(c2ccccc2)=NN(c2ccccc2)C1c1ccccc1 (stereo not shown) [FN1-5, N-(5-Hydroxypentyl)-1,3,5-triphenyl-4,5-dihydro-pyrazole-4-carboxyamide] | dramatic cell killing | significantly reduced | significantly reduced level of luciferase activity |  | dramatic cell killing | 7.7% | 37.5% | 7.5% | 7.6% | 8.8% | no noticeable changes |  | down-regulate TOP/FOP activity dramatically | less
